We go through 4 compounds from article PMC12187869, “Transport of the uremic toxin symmetric dimethylarginine (SDMA) by renal transport proteins” (Amino Acids, 2025).

The Km is the substrate concentration at which the rate is half of its maximum. Broadly, the IC50 is the concentration that inhibits the measured activity by half. Low readings indicate greater potency in that assay, high ones weaker potency in that assay.

What all share (format): cell-based
The target in assay [1] is T1, CAT1 (Homo sapiens, UniProt P30825).
T1 construct: gene SLC7A1; HEK293 cells stably expressing human CAT1
Description: inhibition of [3H]SDMA uptake in HEK-CAT1 cells at […].

The target in assay [2] is T2, OATP4C1 (Homo sapiens, UniProt Q6ZQN7).
T2 construct: gene SLCO4C1; HEK293 cells stably expressing human OATP4C1
T2 sequence (Q6ZQN7 1-724): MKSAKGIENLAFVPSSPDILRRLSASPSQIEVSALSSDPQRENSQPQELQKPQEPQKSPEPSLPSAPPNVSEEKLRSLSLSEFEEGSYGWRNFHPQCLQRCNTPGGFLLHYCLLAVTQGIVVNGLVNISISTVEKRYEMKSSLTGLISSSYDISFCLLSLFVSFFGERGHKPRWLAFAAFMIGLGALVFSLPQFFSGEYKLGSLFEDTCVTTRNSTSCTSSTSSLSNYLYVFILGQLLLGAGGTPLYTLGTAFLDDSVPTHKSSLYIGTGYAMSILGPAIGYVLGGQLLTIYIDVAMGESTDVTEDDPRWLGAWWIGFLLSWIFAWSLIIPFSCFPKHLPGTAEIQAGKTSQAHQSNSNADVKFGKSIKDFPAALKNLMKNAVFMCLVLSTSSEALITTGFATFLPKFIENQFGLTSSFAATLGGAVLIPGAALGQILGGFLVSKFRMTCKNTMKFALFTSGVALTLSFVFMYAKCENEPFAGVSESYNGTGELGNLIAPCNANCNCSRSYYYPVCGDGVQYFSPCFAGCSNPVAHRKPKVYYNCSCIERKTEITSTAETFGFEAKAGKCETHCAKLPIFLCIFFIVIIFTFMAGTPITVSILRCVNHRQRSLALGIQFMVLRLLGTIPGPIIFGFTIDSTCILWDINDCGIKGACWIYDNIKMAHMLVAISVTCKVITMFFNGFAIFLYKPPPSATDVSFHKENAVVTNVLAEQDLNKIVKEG
Description: inhibition of [3H]SDMA uptake in HEK-OATP4C1 cells at […].

The target of the next assay is T3, OCT2 (Homo sapiens, UniProt O15244).
T3 construct: gene SLC22A2; HEK293 cells stably expressing human OCT2
T3 sequence (O15244 1-555): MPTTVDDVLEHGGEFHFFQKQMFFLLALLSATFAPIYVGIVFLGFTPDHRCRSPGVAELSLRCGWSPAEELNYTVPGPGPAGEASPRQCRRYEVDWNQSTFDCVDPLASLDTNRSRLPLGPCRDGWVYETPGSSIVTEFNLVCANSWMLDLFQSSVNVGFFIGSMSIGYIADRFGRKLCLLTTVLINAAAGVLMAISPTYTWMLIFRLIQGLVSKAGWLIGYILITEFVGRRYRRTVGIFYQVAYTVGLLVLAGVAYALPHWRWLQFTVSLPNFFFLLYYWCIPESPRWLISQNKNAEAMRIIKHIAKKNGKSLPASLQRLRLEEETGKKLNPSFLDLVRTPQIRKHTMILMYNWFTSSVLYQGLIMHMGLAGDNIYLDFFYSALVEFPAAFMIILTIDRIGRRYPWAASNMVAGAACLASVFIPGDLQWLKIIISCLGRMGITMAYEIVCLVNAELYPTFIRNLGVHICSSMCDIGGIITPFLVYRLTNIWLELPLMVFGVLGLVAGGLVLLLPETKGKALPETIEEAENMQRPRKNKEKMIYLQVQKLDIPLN
Description: [3H]SDMA uptake in HEK-OCT2 cells; no saturation up to […].

A further assay has as its target T4, MATE1 (Homo sapiens, UniProt Q96FL8).
T4 construct: gene SLC47A1; HEK293 cells stably expressing human MATE1
T4 sequence (Q96FL8 1-570): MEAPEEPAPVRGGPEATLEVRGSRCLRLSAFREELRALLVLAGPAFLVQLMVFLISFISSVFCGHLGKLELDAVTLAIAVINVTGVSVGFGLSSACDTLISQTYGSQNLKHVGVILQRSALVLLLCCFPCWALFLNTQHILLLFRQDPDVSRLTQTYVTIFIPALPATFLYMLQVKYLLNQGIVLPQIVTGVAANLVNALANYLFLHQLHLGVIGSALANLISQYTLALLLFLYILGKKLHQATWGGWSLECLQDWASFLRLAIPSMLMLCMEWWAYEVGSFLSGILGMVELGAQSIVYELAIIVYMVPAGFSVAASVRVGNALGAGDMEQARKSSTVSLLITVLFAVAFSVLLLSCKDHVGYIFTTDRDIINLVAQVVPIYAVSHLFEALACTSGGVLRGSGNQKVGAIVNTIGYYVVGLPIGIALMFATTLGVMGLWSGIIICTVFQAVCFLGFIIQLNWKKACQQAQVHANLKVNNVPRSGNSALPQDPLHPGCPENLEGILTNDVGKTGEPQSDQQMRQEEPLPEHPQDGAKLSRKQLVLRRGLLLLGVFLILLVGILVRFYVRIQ
Description: [3H]SDMA uptake kinetics (Km) in HEK-MATE1 cells. To be noted: read-out: Km in μM.

Assay [3] concerns the target T1, CAT1. Description: inhibition of [3H]SDMA uptake in HEK-CAT1 cells.
For assay [4], the target named is T2, OATP4C1. Description: inhibition of [3H]SDMA uptake in HEK-OATP4C1 cells.

Structures are written as SMILES.

T1 sequence (P30825 whole entry): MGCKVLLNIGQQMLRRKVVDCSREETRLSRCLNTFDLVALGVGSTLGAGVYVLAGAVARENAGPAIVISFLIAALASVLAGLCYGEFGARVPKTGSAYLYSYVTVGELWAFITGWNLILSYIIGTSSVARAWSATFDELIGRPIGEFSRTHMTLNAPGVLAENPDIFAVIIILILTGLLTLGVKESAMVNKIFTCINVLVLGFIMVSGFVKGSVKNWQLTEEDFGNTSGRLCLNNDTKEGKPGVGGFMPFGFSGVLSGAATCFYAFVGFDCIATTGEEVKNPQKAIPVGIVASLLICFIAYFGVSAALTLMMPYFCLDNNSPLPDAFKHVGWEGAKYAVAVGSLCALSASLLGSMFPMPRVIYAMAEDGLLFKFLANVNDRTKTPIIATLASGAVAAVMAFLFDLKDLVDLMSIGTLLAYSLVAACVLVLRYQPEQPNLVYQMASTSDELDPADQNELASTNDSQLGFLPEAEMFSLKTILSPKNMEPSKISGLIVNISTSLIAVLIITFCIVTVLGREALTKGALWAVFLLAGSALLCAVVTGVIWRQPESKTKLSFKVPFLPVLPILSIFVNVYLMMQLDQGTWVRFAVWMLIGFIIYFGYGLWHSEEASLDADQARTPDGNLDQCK

For the compound `CN(C)C(=N)NCCC[C@H](N)C(=O)O` [ADMA], at CAT1 [1], the “inhibition of [3H]SDMA uptake in HEK-CAT1 cells at 50 and 500 μM” value was “all influenced SDMA transport, thereby competing with SDMA for CAT1- or OATP4C1-mediated uptake”. In the case of `N=C(N)NCCCC[C@H](N)C(=O)O` [L-homoarginine], the “inhibition of [3H]SDMA uptake in HEK-OATP4C1 cells at 50 and 500 μM” value against OATP4C1 [2] was “all influenced SDMA transport, thereby competing with SDMA for CAT1- or OATP4C1-mediated uptake”. As to `CN=C(NC)NCCC[C@H](N)C(=O)O` [symmetric dimethylarginine], the “[3H]SDMA uptake in HEK-OCT2 cells; no saturation up to 4 000 μM” value on OCT2 is “significant uptake was observed for CAT1-, OATP4C1-, OCT2-, and MATE1-mediated transport”. Also, the Km at MATE1 is 1970 µM. Turning to `N=C(N)NCCC[C@H](N)C(=O)O` [L-arginine], the values for the IC50 against CAT1 [3] and at OATP4C1 [4] were 280 µM and 28.8 µM, respectively.
